pIC50: −log10 of the molar value. Counter-ions that a name gives are not always drawn.

The source of these data is US5635518A, “N-substituted azaheterocyclic carboxylic acids and esters thereof” (Novo Nordisk A/S, priority 1993, dated 1997).

For the first test, the system named is [^3 H]-GABA uptake. As to the kind of experiment: in vitro inhibition of [3H]-GABA uptake, rat cortical tissue homogenate (method of Fjalland). As to conditions: 40 mM tris HCl pH 7.5, 60 minutes at 30° C. The class given is biochemical, Male wistar rat. On the procedure:
Values for in vitro inhibition of [^3 H]-GABA uptake for the invention compounds were assessed essentially by the method of Fjalland (Acta Pharmacol. Toxicol. 1978, 42, 73-76). Male wistar rat cortical tissue was gently homogenized by hand using a glass/PTFE homogenizer in 10 volumes of 0.32M sucrose. Incubation was performed in a 40 mM tris HCl buffer (pH 7.5 at 30° C.) containing […], 4 mM MgSO4, […] and 10 mM glucose, for 60 minutes at 30° C. Values for inhibition of GABA uptake for some representative compounds are recorded in Table I.
Consider `O=C(O)[C@@H]1CCCN(CCOc2ccccc2)C1` [Example 1, (R)-1-(2-Phenoxyethyl)-3-piperidinecarboxylic acid hydrochloride], for which the pIC50 (commonly −log10 of the IC50, conventionally taken in molar units) is 4.19.

Regarding `O=C(O)[C@@H]1CCCN(CCCCOc2ccccc2)C1` [Example 2, (R)-1-(4-Phenoxy-1-butyl)-3-piperidinecarboxylic acid hydrochloride], the pIC50 is 4.62.

With `O=C(O)[C@@H]1CCCN(CCOc2ccccc2Cc2ccccc2)C1` [Example 3, (R)-1-(2-(2-Benzylphenoxy)ethyl)-3-piperidinecarboxylic acid hydrochloride], the pIC50 is 5.17.

In turn, `O=C(O)[C@@H]1CCCN(CCOc2cccc(-c3ccccc3)c2)C1` [Example 4, (R)-1-(2-(3-Phenylphenoxy)ethyl)-3-piperidinecarboxylic acid hydrochloride] gave a pIC50 of 5.25.

On to `O=C(O)[C@@H]1CCCN(CCOc2ccccc2-c2ccccc2)C1` [Example 5, (R)-1-(2-(2-Phenylphenoxy)ethyl)-3-piperidinecarboxylic acid hydrochloride], for which the pIC50 was 5.25.

The next test relates to GABA uptake.
Test: not given
The following applies: oral; Yunger, L. M. et al., J. Pharm. Exp. Ther. 1984, 228, 109; cited from earlier work.
`O=C(O)C1CCCN(CCC=C(c2ccccc2)c2ccccc2)C1` (stereo not shown) [SK&F 89976A, N-(4,4-diphenyl-3-buten-1-yl)nipecotic acid]: the “orally active inhibitor of GABA uptake” value was “orally active inhibitors of GABA uptake”.

In the case of `O=C(O)C1=CCCN(CCC=C(c2ccccc2)c2ccccc2)C1` [SK&F 100330A, N-(4,4-diphenyl-3-buten-1-yl)guvacine], the “orally active inhibitor of GABA uptake” value is given as “orally active inhibitors of GABA uptake”.

Turning to `O=C(O)CC1CCN(CCC=C(c2ccccc2)c2ccccc2)C1` (stereo not drawn) [SK&F 100561, N-(4,4-diphenyl-3-buten-1-yl)-homo-β-proline], the “orally active inhibitor of GABA uptake” value is listed as “orally active inhibitors of GABA uptake”.

Consider `O=C(O)C1CCCN(CCC=C(c2ccccc2)c2cccs2)C1` (stereo not shown) [SK&F 100604J, N-(4-phenyl-4-(2-thienyl)-3-buten-1-yl)nipecotic acid], for which the “orally active inhibitor of GABA uptake” value is given as “orally active inhibitors of GABA uptake”.

The next test concerns GABA uptake.
Test: not given
The following applies: from the synaptic cleft into presynaptic nerve terminals and glial cells; cited from earlier work.
Turning to `O=C(O)C1CCCNC1` (stereo not shown) [3-piperidine-carboxylic acid], the “inhibitor of GABA uptake” value is “well-known and potent inhibitor of GABA uptake”.
